Test results as given in patent US7018615B2, “Method of identifying molecules that home to a selected organ in vivo” (The Burnham Institute, priority 1995, dated 2006).
Bridge positions count the residues as written; N and C are the ends. Ends that are not written are not given here.

Tests used:
[1] = system: kidney; assay: Homing of individual phage to kidney compared with brain; format: in vivo, mice; conditions: phage expressing the peptide
Procedure: The same methodology used to isolate phage expressing brain homing peptides was used to isolate phage expressing peptides that home to kidney. In these experiments, brain was used as the control organ. A mixture of the CX5C (SEQ ID NO: 36) and the CX6C (SEQ ID NO: 37) libraries was administered as described above. Homing of phage to the kidney was obtained and an approximately 3× to 7× enrichment of phage homing to kidney was observed following a second round of in vivo panning.
The amino acid sequences were determined for the inserts in 48 cloned phage that homed to kidney. The peptides expressed by these phage were represented by two predominant sequences, CLPVASC (SEQ ID NO: 21; 46% of the clones sequenced) and CGAREMC (SEQ ID NO: 22; 17% of the clones; see Table 2). In addition, the peptide CKGRSSAC (SEQ ID NO: 23) appeared three times and three other peptides were present twice each.

[2] = system: brain; assay: Homing of individually amplified phage to brain compared with kidney (TU recovered); format: in vivo, mice; conditions: phage displaying the peptide, same input titer, TU recovered from each organ
Procedure: To determine the specificity of brain homing of the individual motifs identified, phage displaying the predominant motifs were amplified individually, diluted to the same input titer and administered to mice. Following administration, brain and kidney were removed and the number of TU of phage in each organ was determined. […] Specifically, the ratio of selective homing (brain:kidney) was about 8 for CNSRLHLRC (SEQ ID NO: 1) and for CLSSRLDAC (SEQ ID NO: 3), 4 for CENWWGDVC (SEQ ID NO: 2) and 9 for […] (SEQ ID NO: 16).

[3] = system: brain; assay: Homing of 125I-peptide/RBC complex to brain and kidney, alone or with unlabeled peptide; format: in vivo, mouse; conditions: for effect of coadministered unlabeled peptide on brain homing of the CLSSRLDAC/RBC complex / effect of coadministered unlabeled peptide on localization of the CLSSRLDAC/RBC complex in the kidney: 10 mM unlabeled peptide coadministered
Procedure: The synthetic cyclic CLSSRLDAC (SEQ ID NO: 3) peptide (1 mg) was labeled with iodine-125 using the Bolton and Hunter reagent (Amersham; Arlington Heights Ill.). Labeled peptide was purified by reverse phase HPLC on Sep-Pak™ cartridges (Waters, Millipore Corp.; Milford Pa.) and the ^125I-peptide (200 μg) was coupled to 1 ml glutaraldehyde-stabilized sheep RBC (Sigma Chemical Co.; St. Louis Mo.) according to the manufacturer's instructions.
After 2 min, each mouse was perfused through the heart with 50 ml DMEM and the brain and kidney were removed and assayed for radioactivity.
Approximately twice as much of the CLSSRLDAC/RBC complex (SEQ ID NO: 3) homed to brain than to kidney. […] Coadministration of unlabeled CVRLNSLAC (SEQ ID NO: 43) had no effect on selective homing of the complex to brain and no effect on the non-specific localization of the complex in the kidney.

[4] = system: brain; assay: Peptide competition: synthetic cyclic peptide co-injected with brain homing phage; format: in vivo, mice; conditions: 100 μg synthetic cyclic peptide co-injected with 1×10^8 TU phage
Procedure: In order to confirm the specificity of a peptide for directing homing to a selected organ, peptide competition experiments were performed. The cyclic peptide, CLSSRLDAC (SEQ ID NO: 3), which is one of the brain homing peptides (see Table 1) was synthesized (Immunodynamics; La Jolla Calif.) and purified by HPLC. The effect on the homing of phage expressing CLSSRLDAC (SEQ ID NO: 3), CENWWGDVC (SEQ ID NO: 2) or […] (SEQ ID NO: 16) to the brain was examined in order to determine whether co-administration of the synthetic peptide affected homing of the phage.
Phage expressing CLSSRLDAC (SEQ ID NO: 3), CENWWGDVC (SEQ ID NO: 2) or […] (SEQ ID NO: 16) were titrated to the same concentration and 1×10^8 TU was injected into mice alone, or with 100 μg purified synthetic cyclic CLSSRLDAC (SEQ ID NO: 3) peptide. The synthetic CLSSRLDAC (SEQ ID NO: 3) peptide inhibited the homing of phage expressing CLSSRLDAC (SEQ ID NO: 3) by about 60%.

CGAREMC (displayed on phage)
ratio of selective kidney:brain homing [1]: 3

WRCVLREGPAGGCAWFNRHRL (displayed on phage)
ratio of selective homing (brain:kidney) [2]: ~9

CVRLNSLAC
effect of coadministered unlabeled peptide on brain homing of the CLSSRLDAC/RBC complex [3]: had no effect
effect of coadministered unlabeled peptide on localization of the CLSSRLDAC/RBC complex in the kidney [3]: no effect
brain homing activity ([3]; stated for the control peptide): no brain homing activity

CLPVASC (displayed on phage)
ratio of selective kidney:brain homing [1]: 7

CLSSRLDAC (disulfide 1-9 (inferred)) [also synthesized as cyclic peptide]
effect on homing to brain of CENWWGDVC phage [4]: did not affect
inhibition of homing to brain of phage expressing CLSSRLDAC [4]: about 60%
effect of coadministered unlabeled peptide on brain homing of the CLSSRLDAC/RBC complex [3]: essentially completely inhibited
effect of coadministered unlabeled peptide on localization of the CLSSRLDAC/RBC complex in the kidney [3]: had no effect
ratio of selective homing (brain:kidney) [2]: about 8

CNSRLHLRC (displayed on phage)
ratio of selective homing (brain:kidney) [2]: about 8

CKGRSSAC (displayed on phage)
ratio of selective kidney:brain homing [1]: 2

CENWWGDVC (displayed on phage)
ratio of selective homing (brain:kidney) [2]: ~4
